Experimental data: patent US12428412B2 (DANA-FARBER CANCER INSTITUTE, INC., priority 2018, dated 2025)
“Also recorded” adds a separate entry of the source.

Experiments:
U266 cells [1] = experiment: 4-day growth inhibition assay (ATPlite / cell counting kit), U266 cells; assay type: cell-based; settings: 0-10 μM
Description: An aliquot of the ATP standard solution (ATPlite™ 1000 assay kit, PerkinElmer®, USA) was used to prepare a dilution series in water. A series of 100 μL of complete culture medium was pipetted without cells into the wells of the plate. To each well was added 50 μL of the mammalian cell lysis solution, and the plate was shaken for 5 minutes in an orbital shaker at 700 rpm. 10 μL of the ATP dilution series was added to the wells, and the plate was shaken for 5 minutes in an orbital shaker at 700 rpm. 50 μL of the substrate solution was added and the plate was shaken for 5 minutes in an orbital shaker at 700 rpm. The plate dark adapted the plate for 10 minutes prior to measuring the luminescence and then preparing a standard curve.

U266 cells [2] = experiment: 6-day MTT assay, U266 cells; assay type: cell-based; settings: 0-10 μM
Description: Media from cell cultures was discarded. For adherent cells, the media was carefully aspirated. For suspension cells, the 96 well plate at 1,000×g, 4° C., was spun for 5 minutes in a microplate-compatible centrifuge and the media was carefully aspirated. The volume of existing media has to be the same for each sample. Fifty (50) μL of serum-free media and 50 μL of MTT solution were added into each well. The plate was incubated at 37° C. for 3 hours.
After incubation, 150 μL of MTT solvent were added into each well. The plate was wrapped in foil and shaken on an orbital shaker for 15 minutes. Absorbance was read at OD=590 nm. Reading was performed within 1 hour.

cereblon (CRBN) = cereblon (CRBN) (Homo sapiens, UniProt Q96SW2); experiment: AlphaScreen assay, cereblon (CRBN); assay type: binding
Excerpt: An AlphaLISA® assay for EP300 catalytic function (FIG. 3B) and an AlphaScreen™ assay for EP300 bromodomain and cereblon (CRBN) using biotinylated tagged small molecules as a probe for EP300 bromodomain and CRBN, respectively, were developed (FIG. 3C).
AlphaScreen™ assay was used to determine the binding of inventive degrader compound toward both CRBN and HAT domain.

EP300 [3] = target: T1, EP300 (Homo sapiens, UniProt Q09472); experiment: Immunoblot in CRBN knockout Kelly cell lines, EP300; assay type: cell-based; settings: CRBN-1 and CRBN-3 Kelly lines, 500 nM
T1 construct: Whole cell lysates were collected using ice cold lysis buffer; endogenous in cells; host or cells: Kelly neuroblastoma cells (incl. Ch2.2, LACZ and CRBN knockout lines)
Description: CPD 1 was tested in CRBN knockout (k/o) Kelly cell lines. The experimental protocol is the same as in Example 24.

EP300 [4] = target: T1, EP300; experiment: Cellular degradation assay (immunoblot) in Kelly NB cells, EP300; assay type: cell-based; settings: dose or time dependent
Description: Kelly Neuroblastoma cells were seeded at 1,000,000 cells per well in 6 well plates and were treated in a dose-dependent manner for 24 to 72 hours. Whole cell lysates were collected using ice cold lysis buffer [300 mM NaCl, 50 mM Tris-HCl, pH 7.5, 0.5% Triton X-100, 1% SDS, 1 mM dithiothreitol (DTT), Roche® protease inhibitor cocktail (1:000), 25 units/mL Benzonase] and blotted at a protein concentration of 20 μg. Histone extraction was performed using the EpiQuik™ Total Histone Extraction Kit (OP-0006-100, Epigentek) and blotted at a protein concentration of 4 μg.
Whole cell lysates were resolved in NuPAGE® 3-8% Tris-Acetate polyacrylamide gels (EA03785BOX, Invitrogen™) and histone extraction lysates in Bolt 4-12% Bis-Tris polyacrylamide gels (NWO4125BOX, Invitrogen™). Afterwards, gels were transferred to nitrocellulose membranes (LC2001, Invitrogen™). […]
The experimental protocol is the same as in Example 24. The protein level was determined by immunoblot using EP300 antibody, CBP antibody or H3K27ac antibody. […]

[5] = In vivo study blood analysis; settings: mice, after 14 days
Excerpt: Blood samples were taken from mice treated daily with 40 mpk intraperitoneal injection (IP) after 14 days.

EP300 [6] = target: T2, EP300 (Mus musculus, UniProt B2RWS6); experiment: Immunohistochemistry (IHC) staining of liver from MTD study, EP300; assay type: in vivo; settings: normal mice, 40 mpk, 14-day treatment
T2 construct: from tissue; host or cells: mouse liver (CD1 mice)
Excerpt: (§1) Immunohistochemistry (IHC) staining was used to examine a liver from MTD study. […] No changes in CBP and H3K27Ac levels were observed.

Kelly cells [7] = experiment: ATPlite cell growth inhibition assay, Kelly cell lines treated 72 hours; assay type: cell-based
Description: Compounds CPD 1 to CPD 22 were tested via ATPlite™ assay (ATPlite™ 1000 assay kit, PerkinElmer®, USA) using standard protocol. […] The signal is normalized to DMSO treated cells.

CBP [8] = target: T3, CBP (Homo sapiens, UniProt Q92793); experiment: Proteomics analysis in Kelly NB cells, CBP; assay type: cell-based; settings: 500 nM, 6 hours and 36 hours
T3 construct: endogenous in cells; host or cells: Kelly neuroblastoma cells (incl. Ch2.2, LACZ and CRBN knockout lines)
Description: FIG. 9C is a plot of the proteomics analysis results after treating Kelly NB cells with CPD 1 (500 nM) at 6 hours and 36 hours.

Kelly cells [9] = experiment: Colony formation assay, Kelly cells; assay type: cell-based; settings: 10 days
Excerpt: The experimental method for the colony formation assay is as described in Durbin et al., Nat Genet. 50(9):1240-60 (2018).

CBP [10] = target: T4, CBP (Mus musculus, UniProt P45481); experiment: Immunohistochemistry (IHC) staining of liver from MTD study, CBP; assay type: in vivo; settings: normal mice, 40 mpk, 14-day treatment
T4 construct: from tissue; host or cells: mouse liver (CD1 mice)
Excerpt: as §1

H3K27Ac = experiment: Immunohistochemistry (IHC) staining of liver from MTD study, H3K27Ac; assay type: in vivo; settings: normal mice, 40 mpk, 14-day treatment
Excerpt: as §1

T1 sequence (Q09472 whole entry): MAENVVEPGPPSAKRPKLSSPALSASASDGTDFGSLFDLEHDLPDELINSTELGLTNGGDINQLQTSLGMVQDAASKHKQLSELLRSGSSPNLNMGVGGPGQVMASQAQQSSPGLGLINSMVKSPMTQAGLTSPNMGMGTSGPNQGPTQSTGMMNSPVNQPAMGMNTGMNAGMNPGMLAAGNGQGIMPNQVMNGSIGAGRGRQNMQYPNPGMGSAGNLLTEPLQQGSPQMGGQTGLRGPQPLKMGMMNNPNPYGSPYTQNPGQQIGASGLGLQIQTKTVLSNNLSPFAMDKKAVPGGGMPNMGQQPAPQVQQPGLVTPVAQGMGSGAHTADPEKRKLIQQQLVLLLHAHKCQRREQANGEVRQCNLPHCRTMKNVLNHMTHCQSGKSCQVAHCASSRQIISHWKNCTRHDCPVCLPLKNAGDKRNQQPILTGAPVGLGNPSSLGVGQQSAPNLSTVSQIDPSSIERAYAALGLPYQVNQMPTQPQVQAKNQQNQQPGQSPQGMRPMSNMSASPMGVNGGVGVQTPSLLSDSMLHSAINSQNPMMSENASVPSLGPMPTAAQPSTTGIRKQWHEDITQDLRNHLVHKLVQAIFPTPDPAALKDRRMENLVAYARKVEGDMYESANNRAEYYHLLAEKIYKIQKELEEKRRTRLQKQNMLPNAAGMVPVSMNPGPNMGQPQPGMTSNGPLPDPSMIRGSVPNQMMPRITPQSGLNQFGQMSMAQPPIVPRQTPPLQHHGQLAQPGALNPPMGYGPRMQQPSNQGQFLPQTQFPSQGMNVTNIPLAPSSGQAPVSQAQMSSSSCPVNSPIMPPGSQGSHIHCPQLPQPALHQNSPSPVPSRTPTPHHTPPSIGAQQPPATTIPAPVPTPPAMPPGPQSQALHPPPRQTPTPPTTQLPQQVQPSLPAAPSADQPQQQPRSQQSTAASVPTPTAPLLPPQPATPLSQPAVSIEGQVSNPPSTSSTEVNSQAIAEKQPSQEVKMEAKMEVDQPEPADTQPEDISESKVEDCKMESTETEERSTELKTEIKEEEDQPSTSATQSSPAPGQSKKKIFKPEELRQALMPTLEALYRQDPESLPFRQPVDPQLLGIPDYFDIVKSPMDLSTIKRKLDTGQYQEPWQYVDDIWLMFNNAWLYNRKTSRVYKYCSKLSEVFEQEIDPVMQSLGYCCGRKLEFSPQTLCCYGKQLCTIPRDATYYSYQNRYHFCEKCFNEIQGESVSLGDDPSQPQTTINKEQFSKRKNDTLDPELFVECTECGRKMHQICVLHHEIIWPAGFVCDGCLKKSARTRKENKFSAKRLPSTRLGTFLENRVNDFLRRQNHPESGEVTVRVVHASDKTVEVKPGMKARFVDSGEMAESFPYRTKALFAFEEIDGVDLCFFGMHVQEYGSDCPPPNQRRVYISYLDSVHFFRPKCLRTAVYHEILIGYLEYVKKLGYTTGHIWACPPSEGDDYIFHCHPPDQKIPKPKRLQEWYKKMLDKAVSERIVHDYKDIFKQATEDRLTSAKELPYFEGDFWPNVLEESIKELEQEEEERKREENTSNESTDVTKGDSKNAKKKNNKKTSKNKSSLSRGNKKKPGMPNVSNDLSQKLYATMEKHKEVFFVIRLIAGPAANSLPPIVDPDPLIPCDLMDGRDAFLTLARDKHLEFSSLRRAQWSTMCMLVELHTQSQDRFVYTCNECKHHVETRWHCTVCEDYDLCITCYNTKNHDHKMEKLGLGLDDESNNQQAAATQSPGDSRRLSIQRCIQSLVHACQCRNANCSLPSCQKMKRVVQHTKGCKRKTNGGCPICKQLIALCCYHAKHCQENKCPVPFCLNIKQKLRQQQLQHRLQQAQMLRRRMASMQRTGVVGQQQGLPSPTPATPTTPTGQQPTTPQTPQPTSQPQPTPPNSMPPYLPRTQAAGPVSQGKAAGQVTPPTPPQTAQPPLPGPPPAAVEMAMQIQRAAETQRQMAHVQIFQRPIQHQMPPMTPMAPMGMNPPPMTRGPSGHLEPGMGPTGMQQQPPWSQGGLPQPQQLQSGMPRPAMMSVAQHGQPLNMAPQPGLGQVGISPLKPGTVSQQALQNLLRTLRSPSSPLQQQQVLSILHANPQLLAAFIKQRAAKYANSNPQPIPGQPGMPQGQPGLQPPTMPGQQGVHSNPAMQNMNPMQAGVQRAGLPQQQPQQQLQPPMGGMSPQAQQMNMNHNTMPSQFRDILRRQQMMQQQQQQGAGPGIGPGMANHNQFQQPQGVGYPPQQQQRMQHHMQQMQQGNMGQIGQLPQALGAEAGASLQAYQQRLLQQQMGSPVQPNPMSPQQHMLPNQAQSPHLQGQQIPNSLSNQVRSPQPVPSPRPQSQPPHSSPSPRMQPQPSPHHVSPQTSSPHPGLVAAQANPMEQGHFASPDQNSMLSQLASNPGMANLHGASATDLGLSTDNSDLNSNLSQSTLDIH
Sequence of cereblon (CRBN) (Q96SW2 whole entry): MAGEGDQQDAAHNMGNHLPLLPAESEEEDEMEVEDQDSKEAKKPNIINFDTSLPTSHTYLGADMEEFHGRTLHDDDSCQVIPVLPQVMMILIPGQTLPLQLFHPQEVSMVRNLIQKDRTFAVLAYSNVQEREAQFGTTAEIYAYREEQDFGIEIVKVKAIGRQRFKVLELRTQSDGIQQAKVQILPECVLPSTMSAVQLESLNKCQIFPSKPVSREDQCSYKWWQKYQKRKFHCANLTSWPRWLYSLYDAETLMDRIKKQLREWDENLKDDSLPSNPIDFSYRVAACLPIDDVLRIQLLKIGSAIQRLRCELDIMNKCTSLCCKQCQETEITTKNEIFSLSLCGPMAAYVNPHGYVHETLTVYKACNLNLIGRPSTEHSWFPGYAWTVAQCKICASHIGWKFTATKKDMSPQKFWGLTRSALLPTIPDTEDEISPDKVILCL

Q: Which “growth inhibition compared with A485” value (U266 cells [1]) does the source give for `C[C@H](N(Cc1ccc(F)cc1)C(=O)CN1C(=O)O[C@@]2(CCc3cc(NC(=O)CCCCCCCCCCCNc4ccc5c(c4)C(=O)N(C4CCC(=O)NC4=O)C5=O)ccc32)C1=O)C(F)(F)F` (stereo partly drawn) [CPD 1, 12-((2-(2,6-dioxopiperidin-3-yl)-1,3-dioxoisoindolin-5-yl)amino)-N—((R)-3′-(2-((4-fluorobenzyl)((S)-1,1,1-trifluoropropan-2-yl)amino)-2-oxoethyl)-2′,4′-dioxo-2,3-dihydrospiro[indene-1,5′-oxazolidin]-5-yl)dodecanamide] here?
A: The value was “outperformed inhibitor A485”.

Q: And the “growth inhibition compared with A485” value (U266 cells [2])?
A: Its value is “outperformed inhibitor A485”.

Q: And the “binding to cereblon (CRBN)” value (cereblon (CRBN))?
A: Its value is “bound and bind”.

Q: What about the “EP300 degradation in CRBN k/o lines” value (EP300 [3]) of the same compound?
A: Its value is “did not degrade”.

Q: What about the EP300 degradation (EP300 [4]) of the same compound?
A: Its EP300 degradation is “selective degradation of EP300; also recorded: clear degradation of EP300”.

Q: And the ALP ([5]; 40 mg/kg IP daily)?
A: Its ALP is 51 U/L.

Q: And the ALT ([5]; 40 mg/kg IP daily)?
A: The ALT was 54 U/L.

Q: And the AST ([5]; 40 mg/kg IP daily)?
A: Its AST is 37 U/L.

Q: What about the Albumin ([5]; 40 mg/kg IP daily) of the same compound?
A: Its Albumin is 3.2 g/dL.

Q: What about the Basophils ([5]; 40 mg/kg IP daily) of the same compound?
A: The Basophils was 0.02 K/μL.

Q: What about the Creatinine ([5]; 40 mg/kg IP daily) of the same compound?
A: The Creatinine was 0.17 mg/dL.

Q: And the Eosinophils ([5]; 40 mg/kg IP daily)?
A: Its Eosinophils is 0.10 K/μL.

Q: What about the GGTP ([5]; 40 mg/kg IP daily) of the same compound?
A: The GGTP was 5.

Q: What about the Hematocrit ([5]; 40 mg/kg IP daily) of the same compound?
A: Its Hematocrit is 41.2%.

Q: What about the Hemoglobin ([5]; 40 mg/kg IP daily) of the same compound?
A: The Hemoglobin was 13.35 g/dL.

Q: And the Lymphocytes ([5]; 40 mg/kg IP daily)?
A: Its Lymphocytes is 1.80 K/μL.

Q: And the Monocytes ([5]; 40 mg/kg IP daily)?
A: The Monocytes was 0.35 K/μL.

Q: What about the Neutrophils ([5]; 40 mg/kg IP daily) of the same compound?
A: Its Neutrophils is 1.2 K/μL.

Q: What about the Platelet ([5]; 40 mg/kg IP daily) of the same compound?
A: The Platelet was 528 K/μL.

Q: And the WBC ([5]; 40 mg/kg IP daily)?
A: The WBC was 3.46 K/μL.

Q: What about the “toxicity by blood sample measurements” value ([5]; 40 mpk IP daily) of the same compound?
A: Its value is “not toxic”.

Q: What about the “EP300 (P300) level in liver tissue” value (EP300 [6]) of the same compound?
A: The value was “A drop in P300 levels was observed”.

Q: And the “Kelly NB cell growth inhibition” value (Kelly cells [7]; 72 hours, ATPlite, normalized to DMSO)?
A: Its value is “outperformed positive control A485; also recorded: Cell growth inhibition was observed; also recorded: much higher potency compared to inhibitor alone”.

Q: And the IC50 (Kelly cells [7]; ND: not detected)?
A: The IC50 was 0.166 µM.

Q: What about the “CBP level (proteomics)” value (CBP [8]) of the same compound?
A: The value was “No changes in the CBP level were observed”.

Q: What about the “Kelly cell growth, colony formation” value (Kelly cells [9]) of the same compound?
A: Its value is “inhibited the Kelly cell growth in a dose dependent manner”.

Q: And the “CBP level in liver tissue” value (CBP [10])?
A: The value was “No changes”.

Q: And the “H3K27Ac level in liver tissue” value (H3K27Ac)?
A: Its value is “No changes”.
